The results in this text go back to ChEMBL document CHEMBL1150994, “The chemical synthesis of large random peptide libraries and their use for the discovery of ligands for macromolecular acceptors” (Bioorg Med Chem Lett, 1993).

Molecules are shown by their SMILES. Activity calls are given as the source filed them. No cut-off for these calls is given here. Where a SMILES comes first, the peptide text is derived from it. [ ]: non-standard residue; d: D form. βAla = NCCC(=O)O

For the first experiment, the system named is Monoclonal antibody (mAb) 3E7. As to the kind of experiment: Affinity towards anti-beta-endorphin MAb(Clone 3-E7) using [3H][Leu5]-enkephalin as labeled ligand at 10 uM concentration; not active.
As to `CC(C)C[C@H](N)C(=O)N[C@@H](Cc1ccc(O)cc1)C(=O)NCC(=O)NCC(=O)N[C@@H](Cc1ccccc1)C(=O)O` (H-LYGGF-OH), the result was inactive. With `CSCC[C@H](N)C(=O)N[C@@H](Cc1ccc(O)cc1)C(=O)NCC(=O)NCC(=O)N[C@@H](Cc1ccccc1)C(=O)O` (H-MYGGF-OH), the result was inactive.

With `NC(=O)C[C@H](N)C(=O)N[C@@H](Cc1ccc(O)cc1)C(=O)NCC(=O)NCC(=O)N[C@@H](Cc1ccccc1)C(=O)O` (H-NYGGF-OH), the result was inactive.

As for `CC(C)C[C@H](NC(=O)[C@H](CC(C)C)NC(=O)CNC(=O)[C@H](Cc1ccc(O)cc1)NC(=O)[C@@H](N)CCCN=C(N)N)C(=O)O` (H-RYGLL-OH), the outcome was inactive. For the compound `C[C@H](NC(=O)CNC(=O)[C@@H](N)Cc1ccc(O)cc1)C(=O)N[C@@H](Cc1ccccc1)C(=O)N[C@@H](Cc1ccccc1)C(=O)O` (H-YGAFF-OH), the outcome was inactive. In the case of `CC[C@H](C)[C@H](NC(=O)[C@H](Cc1ccccc1)NC(=O)[C@H](C)NC(=O)CNC(=O)[C@@H](N)Cc1ccc(O)cc1)C(=O)O` (H-YGAFI-OH), the outcome was inactive. In the case of `CSCC[C@H](NC(=O)[C@H](Cc1ccccc1)NC(=O)[C@H](C)NC(=O)CNC(=O)[C@@H](N)Cc1ccc(O)cc1)C(=O)O` (H-YGAFM-OH), the result was inactive. As for `C[C@H](NC(=O)CNC(=O)[C@@H](N)Cc1ccc(O)cc1)C(=O)N[C@@H](Cc1ccccc1)C(=O)N[C@@H](CCC(N)=O)C(=O)O` (H-YGAFQ-OH), the outcome was inactive.

`C[C@H](NC(=O)CNC(=O)[C@@H](N)Cc1ccc(O)cc1)C(=O)N[C@@H](Cc1ccccc1)C(=O)N[C@H](C(=O)O)[C@@H](C)O` (H-YGAFT-OH): the outcome was inactive. Regarding `CC(C)C[C@H](NC(=O)[C@H](C)NC(=O)CNC(=O)[C@@H](N)Cc1ccc(O)cc1)C(=O)N[C@H](C(=O)O)[C@@H](C)O` (H-YGALT-OH), the outcome was inactive.

On to `C[C@H](NC(=O)CNC(=O)[C@@H](N)Cc1ccc(O)cc1)C(=O)N[C@@H](Cc1c[nH]c2ccccc12)C(=O)N[C@@H](CC(=O)O)C(=O)O` (H-YGAWD-OH), for which the outcome was inactive. For the compound `C[C@H](NC(=O)[C@H](CCC(=O)O)NC(=O)CNC(=O)[C@@H](N)Cc1ccc(O)cc1)C(=O)N[C@@H](Cc1ccccc1)C(=O)O` (H-YGEAF-OH), the outcome was inactive. The same measure, in the same setting: with `NC(=O)CC[C@H](NC(=O)[C@H](Cc1ccccc1)NC(=O)[C@H](Cc1ccccc1)NC(=O)CNC(=O)[C@@H](N)Cc1ccc(O)cc1)C(=O)O` (H-YGFFQ-OH) the entry was “inactive”.

Consider `CC[C@H](C)[C@H](NC(=O)[C@H](Cc1ccccc1)NC(=O)CNC(=O)CNC(=O)[C@@H](N)Cc1ccc(O)cc1)C(=O)O` (H-YGGFI-OH), for which the result was inactive. With `NC(=O)CC[C@H](NC(=O)[C@H](Cc1ccccc1)NC(=O)CNC(=O)CNC(=O)[C@@H](N)Cc1ccc(O)cc1)C(=O)O` (H-YGGFQ-OH), the outcome was inactive. On to `N[C@@H](Cc1ccc(O)cc1)C(=O)NCC(=O)NCC(=O)NCC(=O)N[C@@H](Cc1ccccc1)C(=O)O` (H-YGGGF-OH), for which the outcome was inactive. Still for that read-out and setting: with `C[C@H](NC(=O)[C@H](Cc1c[nH]cn1)NC(=O)CNC(=O)[C@@H](N)Cc1ccc(O)cc1)C(=O)N[C@@H](Cc1ccccc1)C(=O)O` (H-YGHAF-OH) the entry was “inactive”; with `CC(C)C[C@H](NC(=O)CNC(=O)[C@@H](N)Cc1ccc(O)cc1)C(=O)NCC(=O)N[C@@H](Cc1ccccc1)C(=O)O` (H-YGLGF-OH), “inactive”; with `CSCC[C@H](NC(=O)CNC(=O)[C@@H](N)Cc1ccc(O)cc1)C(=O)NCC(=O)N[C@@H](Cc1ccccc1)C(=O)O` (H-YGMGF-OH), “inactive”. With `NC(=O)C[C@H](NC(=O)CNC(=O)[C@@H](N)Cc1ccc(O)cc1)C(=O)N[C@@H](Cc1ccccc1)C(=O)N[C@@H](Cc1ccccc1)C(=O)O` (H-YGNFF-OH), the outcome was inactive. On the same count and under the same terms, with `N[C@@H](Cc1ccc(O)cc1)C(=O)NCC(=O)N1CCC[C@H]1C(=O)NCC(=O)N[C@@H](Cc1ccccc1)C(=O)O` (H-YGPGF-OH) the entry was “inactive”.

On to `CC(C)[C@H](NC(=O)[C@H](Cc1ccccc1)NC(=O)[C@H](CCC(N)=O)NC(=O)CNC(=O)[C@@H](N)Cc1ccc(O)cc1)C(=O)O` (H-YGQFV-OH), for which the outcome was inactive. Turning to `CC(C)[C@H](NC(=O)CNC(=O)[C@@H](N)Cc1ccc(O)cc1)C(=O)N[C@@H](Cc1ccccc1)C(=O)N[C@@H](C)C(=O)O` (H-YGVFA-OH), the result was inactive. `CC(C)[C@H](NC(=O)CNC(=O)[C@@H](N)Cc1ccc(O)cc1)C(=O)N[C@@H](Cc1ccccc1)C(=O)N[C@@H](CCC(=O)O)C(=O)O` (H-YGVFE-OH): the result was inactive. On to `CC[C@H](C)[C@H](NC(=O)[C@H](Cc1ccccc1)NC(=O)[C@@H](NC(=O)CNC(=O)[C@@H](N)Cc1ccc(O)cc1)C(C)C)C(=O)O` (H-YGVFI-OH), for which the result was inactive. On the same count and under the same terms, with `CC(C)[C@H](NC(=O)CNC(=O)[C@@H](N)Cc1ccc(O)cc1)C(=O)N[C@@H](Cc1ccccc1)C(=O)N[C@@H](CCC(N)=O)C(=O)O` (H-YGVFQ-OH) the entry was “inactive”; with `N[C@@H](Cc1ccc(O)cc1)C(=O)NCC(=O)N[C@@H](Cc1c[nH]c2ccccc12)C(=O)N[C@@H](Cc1ccccc1)C(=O)N[C@@H](Cc1c[nH]cn1)C(=O)O` (H-YGWFH-OH), “inactive”; with `NC(=O)C[C@H](NC(=O)[C@H](Cc1ccccc1)NC(=O)[C@H](Cc1c[nH]c2ccccc12)NC(=O)CNC(=O)[C@@H](N)Cc1ccc(O)cc1)C(=O)O` (H-YGWFN-OH), “inactive”. For `NC(=O)CC[C@H](NC(=O)[C@H](Cc1ccccc1)NC(=O)[C@H](Cc1c[nH]c2ccccc12)NC(=O)CNC(=O)[C@@H](N)Cc1ccc(O)cc1)C(=O)O` (H-YGWFQ-OH), the outcome was inactive.

As to `CSCC[C@H](NC(=O)[C@H](Cc1c[nH]c2ccccc12)NC(=O)[C@H](Cc1c[nH]c2ccccc12)NC(=O)CNC(=O)[C@@H](N)Cc1ccc(O)cc1)C(=O)O` (H-YGWWM-OH), the outcome was inactive.

Regarding `N[C@@H](Cc1ccc(O)cc1)C(=O)NCC(=O)N[C@@H](Cc1ccc(O)cc1)C(=O)N[C@@H](Cc1ccccc1)C(=O)N[C@@H](Cc1ccccc1)C(=O)O` (H-YGYFF-OH), the result was inactive.

Take `NC(=O)CC[C@H](NC(=O)[C@H](Cc1c[nH]c2ccccc12)NC(=O)[C@H](Cc1ccc(O)cc1)NC(=O)CNC(=O)[C@@H](N)Cc1ccc(O)cc1)C(=O)O` (H-YGYWQ-OH): the outcome was inactive.

Regarding `NCCCC[C@H](NC(=O)[C@@H](N)Cc1ccc(O)cc1)C(=O)NCC(=O)NCC(=O)N[C@@H](Cc1ccccc1)C(=O)O` (H-YKGGF-OH), the result was inactive. Still for that read-out and setting: with `CC(C)C[C@H](NC(=O)[C@@H](N)Cc1ccc(O)cc1)C(=O)NCC(=O)NCC(=O)N[C@@H](Cc1ccccc1)C(=O)O` (H-YLGGF-OH) the entry was “inactive”; with `NC(=O)CC[C@H](NC(=O)[C@@H](N)Cc1ccc(O)cc1)C(=O)NCC(=O)NCC(=O)N[C@@H](Cc1ccccc1)C(=O)O` (H-YQGGF-OH), “inactive”; with `CC(C)C[C@H](NC(=O)[C@H](Cc1ccccc1)NC(=O)CNC(=O)CNC(=O)[C@@H](N)Cc1ccc(O)cc1)C(=O)O` [ENKEPHALIN], “inactive”.

For the next experiment, the system named is Monoclonal antibody (mAb) 3E7. As to the kind of experiment: Affinity towards anti-beta-endorphin MAb(Clone 3-E7) using [3H][Leu5]-enkephalin as labeled ligand.
With `NC(=O)CC[C@H](NC(=O)[C@H](Cc1ccccc1)NC(=O)CNC(=O)CNC(=O)[C@@H](N)Cc1ccccc1)C(N)=O` (H-FGGFQ-NH2), inhibition was half-maximal at 40.1 nM (IC50). In turn, `NC(=O)CC[C@H](NC(=O)[C@H](Cc1ccccc1)NC(=O)CNC(=O)CNC(=O)[C@@H](N)Cc1ccccc1)C(=O)O` (H-FGGFQ-OH) came in with an IC50 of 15 nM.

On to `NC(=O)CCNC(=O)[C@H](CCC(N)=O)NC(=O)[C@H](Cc1ccccc1)NC(=O)CNC(=O)CNC(=O)[C@@H](N)Cc1ccccc1` (H-FGGFQ[βAla]-NH2), for which the IC50 turned out to be 45.4 nM.

With `NC(=O)CC[C@H](NC(=O)[C@H](Cc1ccccc1)NC(=O)CNC(=O)CNC(=O)[C@@H](N)Cc1ccccc1)C(=O)NCCC(=O)O` (H-FGGFQ[βAla]-OH), the IC50 came to 39.4 nM. As to `CC(C)C[C@H](NC(=O)[C@H](C)NC(=O)CNC(=O)[C@@H](N)Cc1ccc(O)cc1)C(=O)N[C@@H](CCC(N)=O)C(N)=O` (H-YGALQ-NH2), inhibition was half-maximal at 2910 nM (IC50).

Regarding `CC(C)C[C@H](NC(=O)[C@H](C)NC(=O)CNC(=O)[C@@H](N)Cc1ccc(O)cc1)C(=O)N[C@@H](CCC(N)=O)C(=O)NCCC(N)=O` (H-YGALQ[βAla]-NH2), half-maximal inhibition (IC50) was put at 2870 nM.

With `CC(C)C[C@H](NC(=O)[C@H](C)NC(=O)CNC(=O)[C@@H](N)Cc1ccc(O)cc1)C(=O)N[C@@H](CCC(N)=O)C(=O)NCCC(=O)O` (H-YGALQ[βAla]-OH), 1470 nM corresponded to half-maximal inhibition (IC50). In turn, `C[C@H](NC(=O)[C@H](Cc1ccccc1)NC(=O)CNC(=O)CNC(=O)[C@@H](N)Cc1ccc(O)cc1)C(N)=O` (H-YGGFA-NH2) returned an IC50 of 72 nM.

As for `C[C@H](NC(=O)[C@H](Cc1ccccc1)NC(=O)CNC(=O)CNC(=O)[C@@H](N)Cc1ccc(O)cc1)C(=O)NCCC(N)=O` (H-YGGFA[βAla]-NH2), the IC50 worked out at 93.6 nM. In turn, `C[C@H](NC(=O)[C@H](Cc1ccccc1)NC(=O)CNC(=O)CNC(=O)[C@@H](N)Cc1ccc(O)cc1)C(=O)NCCC(=O)O` (H-YGGFA[βAla]-OH) came in with an IC50 of 82.3 nM.

`CC(C)C[C@H](NC(=O)[C@H](Cc1ccccc1)NC(=O)CNC(=O)CNC(=O)[C@@H](N)Cc1ccc(O)cc1)C(=O)N[C@@H](C)C(N)=O` (H-YGGFLA-NH2) yielded an IC50 of 13.7 nM. `CC(C)C[C@H](NC(=O)[C@H](Cc1ccccc1)NC(=O)CNC(=O)CNC(=O)[C@@H](N)Cc1ccc(O)cc1)C(=O)N[C@@H](C)C(=O)O` (H-YGGFLA-OH) had an IC50 of 17.1 nM. `C[C@@H](O)[C@H](NC(=O)[C@H](Cc1ccccc1)NC(=O)CNC(=O)CNC(=O)[C@@H](N)Cc1ccc(O)cc1)C(N)=O` (H-YGGFT-NH2) returned an IC50 of 65.2 nM. `C[C@@H](O)[C@H](NC(=O)[C@H](Cc1ccccc1)NC(=O)CNC(=O)CNC(=O)[C@@H](N)Cc1ccc(O)cc1)C(=O)NCCC(N)=O` (H-YGGFT[βAla]-NH2): the IC50 is 43.3 nM. Against the preceding compound, the IC50 is about 1.5-fold lower.

As a reminder, the IC50 is the midpoint of a concentration-inhibition curve. Read a high IC50 as weaker potency in that assay.
